US20130310374A1, “Substituted Imidazoquinoline Derivatives” (PIRAMAL ENTERPRISES LIMITED`, priority 2010, published 2013)
Where two headings read alike, the source gives them in different places.

Legend:
PI3K/mTOR pathway = experiment: Western blot analysis in A2780 ovarian cancer cell line; assay type: cell-based; conditions: A2780 cells treated for 1 hour; FIG. 1A-1E
Protocol: Protocol for Western Blot Analysis
A2780 ovarian cancer cell line (ATCC) were grown to approximately 70% confluence in 100-mm tissue culture dishes and then treated for 1 hour with […] compounds of Example 2, 3, 5, 16, 19, 55 and 59. Total protein was extracted using cell lysis buffer (NaCl […], NP40 0.67%, Tris-Cl, pH 7.5, 67 mM) containing protease inhibitors and phosphatase inhibitors (Beta-glycerol phosphate 40 mM, DTT 1 mM, NaF 0.4 mM, Sodium-Orthovanadate 0.4 mM) at 4° C. for 1 hour. Cell lysates were then centrifuged at 2×10^4 g for 10 minutes at 4° C., and the protein concentration of the supernatant was quantified using the Bradford's method (BioRad, USA). For SDS-PAGE, 50 μg protein was loaded in SDS-PAGE, transferred to a polyvinylidene difluoride membrane (Bio-Rad, USA) and blocked with 5 mL buffer [5% skim milk and 0.1% Tween] for 1 hour 30 minutes. Membrane were probed with primary antibody (all primary antibodies were from cell signaling with 1:1000 in TBST solution) of respective protein at 4° C. overnight. Peroxidase-labeled anti-rabbit or anti-mouse antibodies (Santacruze, USA) were used as the secondary antibody. Actin and respective whole protein levels were used as the control for protein loading. Protein antigens were detected using Chemiluminescent Substrate (Thermo scientific, USA) and exposed on Kodak station.

A2780 = experiment: Cytotoxicity propidium iodide assay, A2780; assay type: cell-based; conditions: Homo sapiens; for IC50: A2780 (ovarian), 48 hours treatment, read-out: IC50 Values in μM, C1a
Protocol: (§1) The assay was designed as in the reference, Anticancer Drugs, 2002, 13, 1-8, the disclosure of which is incorporated herein by reference for the teaching of the assay.
(§2) Cells from cell lines (ATCC) as mentioned in the table given below were seeded at a density of 3000 cells/well in a white opaque 96-well plate. Following incubation at 37° C./5% CO2 for a period of 18-24 hours, the cells were treated with various concentrations (stock solution was prepared in DMSO and subsequent dilutions were made in media as per ATCC guidelines) of the compounds of the present invention for a period of 48 hours. At the end of treatment, the culture medium was discarded, the cells were washed with 1×PBS and 200 μL of […] propidium iodide was added to each well. The plates were frozen at 70° C. overnight. For analysis, the plates were warmed to RT, allowed to thaw and were read in PoleStar fluorimeter with the fluorescence setting. The percentage of viable cells in the non-treated set of wells was considered to be 100 and the percentage viability following treatment was calculated accordingly. IC50 values were calculated from graphs plotted using these percentages. IC50 values for certain compounds of present invention are depicted in Table 1 and % Inhibition of certain compounds of present invention are depicted in Table 2.

PC3 = experiment: Cytotoxicity propidium iodide assay, PC3; assay type: cell-based, human; conditions: Homo sapiens, PC-3; for IC50: PC3 (prostate), 48 hours treatment, read-out: IC50 Values in μM, C2a
Protocol: as §1, §2

MDA MB 231 = experiment: Cytotoxicity propidium iodide assay, MDA MB 231; assay type: cell-based; conditions: Homo sapiens; MDA MB 231 (breast), 48 hours treatment; read-out: IC50 Values in μM, C3a
Protocol: as §1
as §2, with “The plates were frozen at 70° C. overnight.” left out

MDA MB 468 = experiment: Cytotoxicity propidium iodide assay, MDA MB 468; assay type: cell-based; conditions: Homo sapiens; MDA MB 468 (breast), 48 hours treatment; read-out: IC50 Values in μM, C3b
Protocol: as §1, §2

BT 549 = experiment: Cytotoxicity propidium iodide assay, BT 549; assay type: cell-based; conditions: Homo sapiens; BT 549 (breast), 48 hours treatment; read-out: IC50 Values in μM, C3c
Protocol: as §1, §2

MCF7 = experiment: Cytotoxicity propidium iodide assay, MCF7; assay type: cell-based; conditions: Homo sapiens; MCF7 (breast), 48 hours treatment; read-out: IC50 Values in μM, C3d
Protocol: as §1, §2

PANC 1 = experiment: Cytotoxicity propidium iodide assay, PANC 1; assay type: cell-based; conditions: Homo sapiens; PANC 1 (pancreatic), 48 hours treatment; read-out: IC50 Values in μM, C4a
Protocol: as §1, §2

AsPC 1 = experiment: Cytotoxicity propidium iodide assay, AsPC 1; assay type: cell-based; conditions: Homo sapiens, ASPC1; AsPC 1 (pancreatic), 48 hours treatment; read-out: IC50 Values in μM, C4b
Protocol: as §1
as §2, with “The plates were frozen at 70° C. overnight.” left out

BxPC3 = experiment: Cytotoxicity propidium iodide assay, BxPC3; assay type: cell-based; conditions: Homo sapiens, BXPC-3; BxPC3 (pancreatic), 48 hours treatment; read-out: IC50 Values in μM, C4c
Protocol: as §1, §2

K562 = experiment: Cytotoxicity propidium iodide assay, K562; assay type: cell-based; conditions: K562 (CML), 48 hours treatment, read-out: IC50 Values in μM, C6a
Protocol: as §1, §2

LN229 = experiment: Cytotoxicity propidium iodide assay, LN229; assay type: cell-based; conditions: LN229 (glioblastoma), 48 hours treatment; read-out: IC50 Values in μM, C5a
Protocol: as §1, §2

LN18 = experiment: Cytotoxicity propidium iodide assay, LN18; assay type: cell-based; conditions: LN18 (glioblastoma), 48 hours treatment; read-out: IC50 Values in μM, C5b
Protocol: as §1, §2

KU812/SR = experiment: Cytotoxicity propidium iodide assay, KU812/SR; assay type: cell-based; conditions: KU812/SR (CML), 48 hours treatment; read-out: IC50 Values in μM, C6c
Protocol: as §1, §2

KCL22/SR = experiment: Cytotoxicity propidium iodide assay, KCL22/SR; assay type: cell-based; conditions: KCL22/SR (CML), 48 hours treatment; read-out: IC50 Values in μM, C6e
Protocol: as §1, §2

| Compound | Akt, S6 and 4EBP1 phosphorylation (Western blot) (PI3K/mTOR pathway) | IC50 (A2780) [µM] | IC50 (PC3) [µM] | IC50 (MDA MB 231) [µM] | IC50 (MDA MB 468) [µM] | IC50 (BT 549) [µM] | IC50 (MCF7) [µM] | IC50 (PANC 1) [µM] | IC50 (AsPC 1) [µM] | IC50 (BxPC3) [µM] | inhibition at 1 µM (A2780; A2780, 1 μM, 48 hours, read-out: % Inhibition at 1 μM, C1a) [%] | inhibition at 1 µM (PC3; PC3, 1 μM, 48 hours, read-out: % Inhibition at 1 μM, C2a) [%] | IC50 (K562; Homo sapiens) [µM] | IC50 (LN229) [µM] | IC50 (LN18) [µM] | IC50 (K562) [µM] | IC50 (KU812/SR) [µM] | IC50 (KCL22/SR) [µM] |
| --- | --- | --- | --- | --- | --- | --- | --- | --- | --- | --- | --- | --- | --- | --- | --- | --- | --- | --- |
| Cn1c(=O)n(-c2ccc(C(F)(F)F)nc2Cl)c2c3cc(-c4cnc(N)c(C(F)(F)F)c4)ccc3ncc21 [Example 59, 8-(6-Amino-5-(trifluoromethyl)pyridin-3-yl)-1-(2-chloro-6-(trifluoromethyl)pyridin-3-yl)-3-methyl-1H-imidazo[4,5-c]quinolin-2(3H)-one] | inhibit Akt, S6 and 4EBP1 phosphorylation | < 0.01 | 0.018 | < 0.01 | 0.07 | 0.04 | 0.013 | 0.017 | 0.042 | < 0.01 | – | – | – | – | – | – | – | – |
| Cn1c(=O)n(-c2ccc(C#N)nc2)c2c3cc(-c4cccnc4)ccc3ncc21 [Example 49, 5-(3-Methyl-2-oxo-8-(pyridin-3-yl)-2,3-dihydro-1H-imidazo[4,5-c]quinolin-1-yl)picolinonitrile] | – | 0.009 | 0.017 | 0.016 | 0.065 | 0.3 | 0.03 | 0.035 | 0.025 | 0.04 | – | – | – | – | – | – | – | – |
| Cn1c(=O)n(-c2ccc3ncccc3c2)c2c3cc(-c4cnc(N)c(C(F)(F)F)c4)ccc3ncc21 [Example 67, 8-(6-Amino-5-(trifluoromethyl)pyridin-3-yl)-3-methyl-1-(quinolin-6-yl)-1H-imidazo[4,5-c]quinolin-2 (3H)-one] | – | 0.006 | 0.015 | 0.012 | 0.05 | 0.011 | 0.02 | 0.025 | 0.035 | 0.0085 | – | – | – | – | – | – | – | – |
| CC(C)(C#N)c1ccc(-n2c(=O)n(CC#N)c3cnc4ccc(-c5cnc6ccccc6c5)cc4c32)cn1 [Example 17, 2-(5-(3-(Cyanomethyl)-2-oxo-8-(quinolin-3-yl)-2,3-dihydro-1H-imidazo[4,5-c]quinolin-1-yl)pyridin-2-yl)-2-methylpropanenitrile] | – | 0.065 | 0.17 | 0.17 | 0.45 | 0.37 | 0.25 | 0.23 | 0.24 | 0.085 | – | – | – | – | – | – | – | – |
| Cn1c(=O)n(-c2ccc(Cl)nc2C(F)(F)F)c2c3cc(-c4cccnc4)ccc3ncc21 [Example 63, 1-(6-Chloro-2-(trifluoromethyl)pyridin-3-yl)-3-methyl-8-(pyridin-3-yl)-1H-imidazo[4,5-c]quinolin-2 (3H)-one] | – | – | – | – | – | 5.6 | 4 | – | – | – | 88 | 53 | 0.224 | – | – | – | – | – |
| 1-(6-Chloro-2,4′-bipyridin-3-yl)-3-methyl-8-(pyridin-3-yl)-1H-imidazo[4,5-c]quinolin-2(3H)-one [Example 72] | – | – | – | – | – | – | – | – | – | – | – | – | – | 0.44 | 0.992 | 0.0144 | 1.14 | 0.23 |
| Cn1c(=O)n(-c2ccc(C(F)(F)F)nc2)c2c3cc(-c4cnc5ccccc5c4)ccc3ncc21 [Example 54, 3-Methyl-8-(quinolin-3-yl)-1-(6-(trifluoromethyl)pyridin-3-yl)-1H-imidazo[4,5-c]quinolin-2(3H)-one] | – | 0.16 | 0.55 | 0.55 | 1.2 | 1 | 0.8 | 0.95 | 0.55 | 0.78 | – | – | – | – | – | – | – | – |
| Cn1c(=O)n(CCN2CCOCC2)c2c3cc(-c4cccnc4)ccc3ncc21 [Example 68, 3-Methyl-1-(2-morpholinoethyl)-8-(pyridin-3-yl)-1H-imidazo[4,5-c]quinolin-2(3H)-one] | – | 1.4 | 2.4 | 2.3 | 7 | > 10 | 3 | 4.6 | 4.6 | 2.4 | – | – | – | – | – | – | – | – |
| Cn1c(=O)n(-c2ccc(C(C)(C)C#N)nc2)c2c3cc(-c4ccc5ncccc5c4)ccc3ncc21 [Example 5, 2-Methyl-2-(5-(3-methyl-2-oxo-8-(quinolin-6-yl)-2,3-dihydro-1H-imidazo[4,5-c]quinolin-1-yl)pyridin-2-yl)propanenitrile] | inhibit Akt, S6 and 4EBP1 phosphorylation | 0.08 | 0.38 | – | – | – | – | – | – | – | – | – | – | – | – | – | – | – |
